{
  "source": "patent EP3936128A1",
  "about": "“ACTIVE SUBSTANCE AGAINST PROTOZOA” (Christian-Albrechts-Universität zu Kiel, priority 2020, dated 2022)",
  "format_in_all_cases": "cell-based",
  "key": {"[1]": {"target": "T1, PfFNT wildtype (Plasmodium falciparum, UniProt O77389)", "T1 construct": "expressed in transfected cells; host or cells: Saccharomyces cerevisiae W303-1A jen1Δ ady2Δ, plasmid pDR196", "assay": "Inhibition of radiolabelled L-lactate uptake in yeast expressing wild-type PfFNT", "protocol": "(§1) Plasmodium falciparum were kept in culture in 5% 0+ erythrocytes in RPMI 1640 medium containing 0,5% Albumax at 37 °C. […] Medium containing test compounds was exchanged every 24 h. In order to test for the propensity of parasites to develop resistance to a given substance, 3D7 parasites were grown in the presence of 3 x IC50 of a test for 30 days. Thereafter the drug was removed by exchanging the medium, and the day recorded when parasites resurfaced in the culture. As an alternative to Plasmodium falciparum, the FNT of the wild-type plasmodium (available under accession number PF3D7_0316600 in the data bank PlasmoDB) and the FNT (G107S mutant FNT) of the resistant plasmodia were expressed in the yeast Saccharomyces cerevisiae W303-1A jen1Δ ady2Δ from plasmid pDR196 (PMA promoter). In the yeast, the endogenous genes for the monocarboxylate transporter Jen1p (sequence accession No. CAA82062 NCBI) and Ady2p (sequence accession No. KZV12856) were deleted (obtained from M. Casal, Universidade do Minho, Portugal).\n(§2) This yeast was grown in SD medium with addition of adenine, histidine, leucine, tryptophan and 2 % (wt/v) glucose at 30 °C up to an OD600 of 0.8 to 1.0, harvested by centrifugation and washed once with water and centrifuged down again, and suspended in 50 mM HEPES/TRIS (pH 6.8) and adjusted to an OD600 of 50± 10% and stored on ice. For contacting with one of the compounds a compound of one step of a dilution series in DMSO was provided in a reaction vessel and onto this 80 µL of the yeast suspension were pipetted. After an incubation on ice for 15 to 20 min 20 µL 5 mM Na-L-lactate plus 0.04 µCi radioactively labelled L-(1-^14C) lactate was added. The lactate concentration obtained was 1 mM. After an incubation of 30 s the uptake of lactate was stopped by a rapid dilution by means of adding of 1 ml ice cold water. From the yeast suspension diluted this way the yeast cells were brought onto a filter membrane by vacuum filtration, washed with 7 ml cold water and transferred with the filter membrane into 3 ml scintillation cocktail. After 24 h of incubation at 18 °C in the scintillation cocktail, in which the cells were lysed, the amount of radioactively labelled lactate was measured by means of a scintillation counter. The total amount of lactate which was taken up by the yeast was calculated from the measured amount of radioactively labelled lactate. As a positive control the yeast was treated equally in parallel testing with DMSO without one of the compounds and was regarded as 100% FNT activity, respectively 0% inhibition. In tests with the compound a lower amount of lactate taken up was found in comparison to the parallel positive control. As a negative control yeast was treated in parallel in which the endogenous genes for the monocarboxylate transporters Jen1p and Ady2p were deleted, but the FNT from plasmodium was not expressed. This negative control was regarded as 0% FNT activity, respectively 100% inhibition."}, "[2]": {"target": "T2, PfFNT G107S (Plasmodium falciparum, UniProt O77389, G107S)", "T2 construct": "expressed in transfected cells; host or cells: Saccharomyces cerevisiae W303-1A jen1Δ ady2Δ, plasmid pDR196", "T2 sequence (O77389 1-309 G107S)": "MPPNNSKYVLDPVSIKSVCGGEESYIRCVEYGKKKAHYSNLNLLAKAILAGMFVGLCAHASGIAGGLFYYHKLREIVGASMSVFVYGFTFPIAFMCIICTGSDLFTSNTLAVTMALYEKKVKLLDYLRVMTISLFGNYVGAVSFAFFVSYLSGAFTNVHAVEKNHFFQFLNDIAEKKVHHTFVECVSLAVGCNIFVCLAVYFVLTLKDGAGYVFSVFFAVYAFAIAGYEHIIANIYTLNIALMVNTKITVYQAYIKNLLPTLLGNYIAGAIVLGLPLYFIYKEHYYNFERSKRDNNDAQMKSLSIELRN", "assay": "Inhibition of radiolabelled L-lactate uptake in yeast expressing G107S mutant PfFNT", "protocol": "as §1, §2"}, "[3]": {"target": "FNT of P. vivax (PvFNT) (Plasmodium vivax, UniProt A0A1G4GWI6)", "sequence (A0A1G4GWI6 whole entry)": "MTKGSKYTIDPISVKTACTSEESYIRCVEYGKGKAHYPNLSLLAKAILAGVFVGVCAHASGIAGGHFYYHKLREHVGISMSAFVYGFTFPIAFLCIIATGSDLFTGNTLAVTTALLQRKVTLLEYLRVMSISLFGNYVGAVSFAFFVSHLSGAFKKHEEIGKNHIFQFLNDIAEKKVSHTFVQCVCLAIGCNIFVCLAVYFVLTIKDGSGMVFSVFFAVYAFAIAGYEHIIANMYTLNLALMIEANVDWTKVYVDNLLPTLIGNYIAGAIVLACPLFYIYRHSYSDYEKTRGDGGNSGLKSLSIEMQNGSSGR", "assay": "Inhibition of the FNT of P. vivax"}, "[4]": {"target": "FNT of P. knowlesi (PkFNT) (Plasmodium knowlesi, UniProt A0A679KXN5)", "sequence (A0A679KXN5 whole entry)": "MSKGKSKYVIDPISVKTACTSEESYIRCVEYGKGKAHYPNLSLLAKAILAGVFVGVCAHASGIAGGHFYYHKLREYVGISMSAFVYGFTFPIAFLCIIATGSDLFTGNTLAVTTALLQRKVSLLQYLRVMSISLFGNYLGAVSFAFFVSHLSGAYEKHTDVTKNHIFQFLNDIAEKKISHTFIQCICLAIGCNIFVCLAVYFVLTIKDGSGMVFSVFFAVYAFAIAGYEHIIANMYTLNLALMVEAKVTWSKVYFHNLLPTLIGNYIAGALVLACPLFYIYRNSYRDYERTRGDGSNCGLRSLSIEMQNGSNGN", "assay": "Inhibition of the FNT of P. knowlesi"}, "[5]": {"target": "FNT of P. ovale (PoFNT) (Plasmodium ovale, UniProt A0A1D3TGZ2)", "sequence (A0A1D3TGZ2 whole entry)": "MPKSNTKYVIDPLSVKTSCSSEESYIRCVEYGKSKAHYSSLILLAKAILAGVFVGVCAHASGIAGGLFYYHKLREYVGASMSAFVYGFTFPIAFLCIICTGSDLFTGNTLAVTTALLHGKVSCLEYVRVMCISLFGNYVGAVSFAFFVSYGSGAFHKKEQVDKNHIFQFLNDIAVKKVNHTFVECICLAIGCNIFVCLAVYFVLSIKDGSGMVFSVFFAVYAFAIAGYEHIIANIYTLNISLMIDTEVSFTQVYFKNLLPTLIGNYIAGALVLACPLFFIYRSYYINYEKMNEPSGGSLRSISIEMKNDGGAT", "assay": "Inhibition of the FNT of P. ovale"}, "[6]": {"target": "FNT of P. malariae (PmFNT) (Plasmodium malariae, UniProt A0A1C3KYI2)", "sequence (A0A1C3KYI2 whole entry)": "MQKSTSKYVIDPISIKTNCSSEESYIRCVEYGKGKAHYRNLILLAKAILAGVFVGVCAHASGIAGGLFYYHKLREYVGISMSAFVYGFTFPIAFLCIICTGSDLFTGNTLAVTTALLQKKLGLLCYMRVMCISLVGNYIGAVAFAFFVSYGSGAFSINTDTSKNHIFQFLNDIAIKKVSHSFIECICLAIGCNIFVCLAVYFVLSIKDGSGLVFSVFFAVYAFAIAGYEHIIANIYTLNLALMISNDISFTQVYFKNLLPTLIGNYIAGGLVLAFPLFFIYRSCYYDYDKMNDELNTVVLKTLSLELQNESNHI", "assay": "Inhibition of the FNT of P. malariae"}, "[7]": {"details": "G107S mutant FNT, 1 mM lactate, pH 6.8, 30 s uptake, read-out: PfFNT G107S IC50"}, "[8]": {"details": "read-out: IC50 for the FNT of P. vivax (PvFNT)"}},
  "note": "Read-outs that look alike come from different tables or passages of the source.",
  "data": [
    {"smiles": "O=C(C=C(O)C(F)(F)CO)c1cccnc1", "note": "[compound [21], 4,4-difluoro-3,5-dihydroxy-1-(3-pyridyl)pent-2-en-1-one]", "values": [
      {"measurement": "IC50", "setting": "[1]", "result": 5.5, "unit": "µM"}
    ]},
    {"smiles": "O=C(C=C(O)C(F)(F)C(F)(F)F)c1ccc[nH]1", "note": "[compound [4], reference compound]", "values": [
      {"measurement": "IC50", "setting": "[1]", "result": "0.16 ± 0.01", "unit": "µM"},
      {"measurement": "IC50", "setting": "[2]; [7]", "result": "12 ± 1", "unit": "µM"}
    ]},
    {"smiles": "COc1ccc(C(=O)C=C(O)C(F)(F)C(F)(F)F)cc1", "note": "[compound [2], reference compound]", "values": [
      {"measurement": "IC50", "setting": "[1]", "result": "0.14 ± 0.01", "unit": "µM"},
      {"measurement": "IC50", "setting": "[2]; [7]", "result": "2.7 ± 0.2", "unit": "µM"},
      {"measurement": "IC50", "setting": "[3]; [8]", "result": "0.249 ± 0.08", "unit": "µM"},
      {"measurement": "IC50", "setting": "[4]", "result": "0.985 ± 0.08", "unit": "µM"},
      {"measurement": "IC50", "setting": "[5]", "result": "~0.9", "unit": "µM"},
      {"measurement": "IC50", "setting": "[6]", "result": "0.391 ± 0.05", "unit": "µM"}
    ]},
    {"smiles": "O=C(C=C(O)C(F)(F)C(F)(F)F)c1cc2ccccc2o1", "note": "[compound [7], reference compound]", "values": [
      {"measurement": "IC50", "setting": "[1]", "result": "0.19 ± 0.01", "unit": "µM"},
      {"measurement": "IC50", "setting": "[2]; [7]", "result": "17 ± 2", "unit": "µM"}
    ]},
    {"smiles": "O=C(C=C(O)C(F)(F)C(F)(F)F)c1ccc(Cl)cn1", "note": "[compound [19], 1-(5-chloropyridin-2-yl)-4,4,5,5,5-pentafluoro-3-hydroxypent-2-en-1-one]", "values": [
      {"measurement": "IC50", "setting": "[1]", "result": "0.23 ± 0.07", "unit": "µM"},
      {"measurement": "IC50", "setting": "[2]", "result": "0.51 ± 0.09", "unit": "µM"}
    ]},
    {"smiles": "COc1ccc(C(=O)C=C(O)C(F)(F)C(F)(F)F)c(O)c1", "note": "[compound [1], reference compound]", "values": [
      {"measurement": "IC50", "setting": "[1]", "result": "0.17 ± 0.01", "unit": "µM"},
      {"measurement": "IC50", "setting": "[2]; [7]", "result": "21 ± 1", "unit": "µM"},
      {"measurement": "IC50", "setting": "[3]; [8]", "result": "0.069 ± 0.003", "unit": "µM"},
      {"measurement": "IC50", "setting": "[4]", "result": "0.212 ± 0.07", "unit": "µM"}
    ]},
    {"smiles": "Cn1ccc(C(=O)C=C(O)C(F)(F)C(F)(F)F)c1", "note": "[compound [6], reference compound]", "values": [
      {"measurement": "IC50", "setting": "[1]", "result": "0.13 ± 0.01", "unit": "µM"},
      {"measurement": "IC50", "setting": "[2]; [7]", "result": "14 ± 1", "unit": "µM"}
    ]},
    {"smiles": "CC(C)(O)CC(=O)C=C(O)C(F)(F)C(F)(F)F", "note": "[compound [3], reference compound]", "values": [
      {"measurement": "IC50", "setting": "[1]", "result": "1.1 ± 0.1", "unit": "µM"},
      {"measurement": "IC50", "setting": "[2]; [7]", "result": "490 ± 20", "unit": "µM"}
    ]},
    {"smiles": "O=C(C=C(O)C(F)(F)C(F)(F)F)c1cnccn1", "note": "[compound [13], 4,4,5,5,5-pentafluoro-3-hydroxy-1-pyrazin-2-yl-pent-2-en-1-one]", "values": [
      {"measurement": "IC50", "setting": "[1]", "result": "0.46 ± 0.03", "unit": "µM"},
      {"measurement": "IC50", "setting": "[2]", "result": "1.2 ± 0.3", "unit": "µM"}
    ]},
    {"smiles": "O=C(C=C(O)C(F)(F)C(F)(F)F)c1cccnc1", "note": "[compound [16], 4,4,5,5,5-pentafluoro-3-hydroxy-1-(3-pyridyl)pent-2-en-1-one]", "values": [
      {"measurement": "IC50", "setting": "[1]", "result": "0.11 ± 0.01", "unit": "µM"},
      {"measurement": "IC50", "setting": "[2]", "result": "0.63 ± 0.05", "unit": "µM"},
      {"measurement": "IC50", "setting": "[3]", "result": "0.229 ± 0.01", "unit": "µM"},
      {"measurement": "IC50", "setting": "[4]", "result": "0.874 ± 0.06", "unit": "µM"},
      {"measurement": "IC50", "setting": "[5]", "result": "0.213 ± 0.03", "unit": "µM"},
      {"measurement": "IC50", "setting": "[6]", "result": "0.214 ± 0.02", "unit": "µM"}
    ]},
    {"smiles": "Cc1ccc(C(=O)C=C(O)C(F)(F)C(F)(F)F)cn1", "note": "[compound [18], 4,4,5,5,5-pentafluoro-3-hydroxy-1-(6-methyl-3-pyridyl)pent-2-en-1-one]", "values": [
      {"measurement": "IC50", "setting": "[1]", "result": "0.15 ± 0.01", "unit": "µM"},
      {"measurement": "IC50", "setting": "[2]", "result": "1.7 ± 0.3", "unit": "µM"}
    ]},
    {"smiles": "O=C(C=C(O)C(F)(F)C(F)(F)F)c1cccnn1", "note": "[compound [12], 4,4,5,5,5-pentafluoro-3-hydroxy-1-pyridazin-3-yl-pent-2-en-1-one]", "values": [
      {"measurement": "IC50", "setting": "[1]", "result": "0.86 ± 0.03", "unit": "µM"},
      {"measurement": "IC50", "setting": "[2]", "result": "3.8 ± 0.8", "unit": "µM"}
    ]},
    {"smiles": "O=C(C=C(O)C(F)(F)C(F)(F)F)c1ccncc1", "note": "[compound [14], 4,4,5,5,5-pentafluoro-3-hydroxy-1-(4-pyridyl)pent-2-en-1-one]", "values": [
      {"measurement": "IC50", "setting": "[1]", "result": "0.15 ± 0.03", "unit": "µM"},
      {"measurement": "IC50", "setting": "[2]", "result": "22 ± 7", "unit": "µM"}
    ]},
    {"smiles": "O=C(C=C(O)C(F)(F)C(F)(F)F)c1ccccn1", "note": "[compound [15], 4,4,5,5,5-pentafluoro-3-hydroxy-1-(2-pyridyl)pent-2-en-1-one]", "values": [
      {"measurement": "IC50", "setting": "[1]", "result": "0.15 ± 0.01", "unit": "µM"},
      {"measurement": "IC50", "setting": "[2]", "result": "0.58 ± 0.09", "unit": "µM"}
    ]},
    {"smiles": "O=C(C=C(O)C(F)(F)C(F)(F)F)c1cnc2ccccc2c1", "note": "[compound [17], 4,4,5,5,5-pentafluoro-3-hydroxy-1-(3-quinolyl)pent-2-en-1-one]", "values": [
      {"measurement": "IC50", "setting": "[1]", "result": "0.24 ± 0.04", "unit": "µM"},
      {"measurement": "IC50", "setting": "[2]; read-out: PfFNT G107S IC50, G107S mutant FNT, 1 mM lactate, pH 6.8, 30 s uptake", "result": "96 ± 0.8", "unit": "µM"}
    ]},
    {"smiles": "COc1ccc(C(=O)C=C(O)C(F)(F)C(F)(F)F)cn1", "note": "[compound [20], 4,4,5,5,5-pentafluoro-3-hydroxy-1-(6-methoxy-3-pyridyl)pent-2-en-1-one]", "values": [
      {"measurement": "IC50", "setting": "[1]", "result": "0.11 ± 0.01", "unit": "µM"},
      {"measurement": "IC50", "setting": "[2]", "result": "0.26 ± 0.05", "unit": "µM"}
    ]},
    {"smiles": "CCCCC(F)(F)C(O)=CC(=O)c1cccnc1", "note": "[compound [22], 4,4-difluoro-3-hydroxy-1-(3-pyridyl)oct-2-en-1-one]", "values": [
      {"measurement": "IC50", "setting": "[1]", "result": "0.36 ± 0.05", "unit": "µM"},
      {"measurement": "IC50", "setting": "[2]; [7]", "result": "24 ± 6", "unit": "µM"}
    ]},
    {"smiles": "O=C(C=C(O)C(F)(F)C(F)(F)F)c1cc[nH]c1", "note": "[compound [5], reference compound]", "values": [
      {"measurement": "IC50", "setting": "[1]", "result": "0.2 ± 0.01", "unit": "µM"},
      {"measurement": "IC50", "setting": "[2]; [7]", "result": "13 ± 1", "unit": "µM"}
    ]}
  ]
}
